In PubChem BioAssay AID330 (DTP/NCI, 2004):
Values joined by “and” are separate entries in the source; they are usually repeats but may differ in a detail not shown here. Equal values may be shown once. Toxic doses and inconclusive results are not listed.

System: P388 leukemia ip, CD2F1 mice, survival T/C
Assay: NCI In Vivo Anticancer Drug Screen. Data for tumor model P388 Leukemia (intraperitoneal) in CD2F1 (CDF1) mice
Settings: endpoint: median survival time, higher = longer survival
Procedure, shortened: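 Mice carrying the transplanted tumor received test compound or vehicle. Survival was recorded in each group, and the value is the treated-group measurement divided by that of the vehicle-treated control group.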

[1] = dose: 100.0 mg/kg/injection, schedule: Q01DX001 (ip), vehicle: saline with Tween-80
[2] = dose: 200.0 mg/kg/injection, schedule: Q01DX001 (ip), vehicle: saline with Tween-80
[3] = dose: 25.0 mg/kg/injection, schedule: Q01DX009 (ip), vehicle: saline
[4] = dose: 50.0 mg/kg/injection, schedule: Q01DX009 (ip), vehicle: saline
[5] = dose: 100.0 mg/kg/injection, schedule: Q01DX009 (ip), vehicle: saline
[6] = dose: 50.0 mg/kg/injection, schedule: Q01DX009 (ip), vehicle: saline with Tween-80
[7] = dose: 100.0 mg/kg/injection, schedule: Q01DX009 (ip), vehicle: saline with Tween-80
[8] = dose: 200.0 mg/kg/injection, schedule: Q01DX009 (ip), vehicle: saline with Tween-80
[9] = dose: 50.0 mg/kg/injection, schedule: Q01DX009 (ip), vehicle: Klucel (hydroxypropylcellulose) (HPC)
[10] = dose: 100.0 mg/kg/injection, schedule: Q01DX009 (ip), vehicle: Klucel (hydroxypropylcellulose) (HPC)
[11] = dose: 200.0 mg/kg/injection, schedule: Q01DX009 (ip), vehicle: Klucel (hydroxypropylcellulose) (HPC)
[12] = dose: 100.0 mg/kg/injection, schedule: Q04DX003 (ip), vehicle: saline with Tween-80
[13] = dose: 50.0 mg/kg/injection, schedule: Q01DX005 (ip), vehicle: saline with Tween-80
[14] = dose: 100.0 mg/kg/injection, schedule: Q01DX005 (ip), vehicle: saline with Tween-80
[15] = dose: 200.0 mg/kg/injection, schedule: Q01DX009 (ip), vehicle: saline
[16] = dose: 25.0 mg/kg/injection, schedule: Q01DX001 (ip), vehicle: Klucel (hydroxypropylcellulose) (HPC)
[17] = dose: 50.0 mg/kg/injection, schedule: Q01DX001 (ip), vehicle: Klucel (hydroxypropylcellulose) (HPC)
[18] = dose: 12.5 mg/kg/injection, schedule: Q01DX009 (ip), vehicle: saline

For `O=C1c2cccc([N+](=O)[O-])c2C(=O)c2nccnc21`, the T/C (dose: 6.0 mg/kg/injection, schedule: Q01DX005 (ip), vehicle: Klucel (hydroxypropylcellulose) (HPC)) was 100 % of control and the T/C (dose: 12.0 mg/kg/injection, schedule: Q01DX005 (ip), vehicle: Klucel (hydroxypropylcellulose) (HPC)) was 107 % of control.

`O=C1Nc2ccccc2C1NC(=S)Nc1ccc(Cl)cc1` (stereo not drawn) was tested, and the T/C [1] was 87 % of control and the T/C [2] was 86 % of control.

For `C#CCSc1ncnc2nc[nH]c12`, the T/C [3] was 95 % of control, the T/C (dose: 25.0 mg/kg/injection, schedule: Q04DX003 (ip), vehicle: saline) was 104 % of control and the T/C [4] was 109 % of control. For the same compound, the T/C (dose: 50.0 mg/kg/injection, schedule: Q04DX003 (ip), vehicle: saline) was 100 % of control, the T/C [5] was 86 % of control and the T/C (dose: 100.0 mg/kg/injection, schedule: Q04DX003 (ip), vehicle: saline) was 100 % of control.

`COc1cc2c(cc1C(C)c1ccc(C)cc1)OCO2` (stereo not drawn) was tested, and the T/C (dose: 50.0 mg/kg/injection, schedule: Q01DX005 (ip), vehicle: Klucel (hydroxypropylcellulose) (HPC)) was 103 % of control, the T/C (dose: 100.0 mg/kg/injection, schedule: Q01DX005 (ip), vehicle: Klucel (hydroxypropylcellulose) (HPC)) was 110 % of control and the T/C (dose: 200.0 mg/kg/injection, schedule: Q01DX005 (ip), vehicle: Klucel (hydroxypropylcellulose) (HPC)) was 114 % of control.

With `CC(CC(=O)c1ccccc1)=NCCCCCN=C(C)CC(=O)c1ccccc1` the T/C [6] was 100 % of control, the T/C [7] was 102 % of control and the T/C [8] was 100 % of control.

With `CNC(=S)OCCn1c([N+](=O)[O-])cnc1C` the T/C [1] was 92 % of control, the T/C [2] was 106 % of control and the T/C (dose: 400.0 mg/kg/injection, schedule: Q01DX001 (ip), vehicle: saline with Tween-80) was 105 % of control.

In the case of `COc1c(OCC(O)CN2CCOCC2)c2c(C)coc2c2ccoc12` (stereo not drawn), the T/C (dose: 60.0 mg/kg/injection, schedule: Q01DX005 (ip), vehicle: Klucel (hydroxypropylcellulose) (HPC)) was 100 % of control and the T/C (dose: 120.0 mg/kg/injection, schedule: Q01DX005 (ip), vehicle: Klucel (hydroxypropylcellulose) (HPC)) was 105 % of control.

With `CCO/C=N/c1c(C#N)cnn1C` the T/C [9] was 100 % of control, the T/C [10] was 98 % of control and the T/C [11] was 106 % of control. For the same compound, the T/C (dose: 400.0 mg/kg/injection, schedule: Q01DX009 (ip), vehicle: Klucel (hydroxypropylcellulose) (HPC)) was 103 % of control.

In the case of `CCOC(=O)NNCC(=O)OCc1ccccc1`, the T/C (dose: 25.0 mg/kg/injection, schedule: Q01DX009 (ip), vehicle: other) was 90 % of control, the T/C (dose: 50.0 mg/kg/injection, schedule: Q01DX009 (ip), vehicle: other) was 93 % of control and the T/C (dose: 100.0 mg/kg/injection, schedule: Q01DX009 (ip), vehicle: other) was 100 % of control. The T/C (dose: 200.0 mg/kg/injection, schedule: Q01DX009 (ip), vehicle: other) was 109 % of control.

For `O=[N+]([O-])c1cc2[nH]cnc2c([N+](=O)[O-])c1Nc1ccc(O)cc1`, the T/C [12] was 87 % of control, the T/C (dose: 200.0 mg/kg/injection, schedule: Q04DX003 (ip), vehicle: saline with Tween-80) was 95 % of control and the T/C (dose: 400.0 mg/kg/injection, schedule: Q04DX003 (ip), vehicle: saline with Tween-80) was 101 % of control.

With `FC(F)(F)C1(C(F)(F)F)[O][Sb]([c]2ccccc2)([c]2ccccc2)([c]2ccccc2)[O]1` the T/C [9] was 100 % of control and the T/C [10] was 101 % of control.

For `CCOC(=O)N1CCN(C(=S)NNC(C)c2cccc[n+]2[O-])CC1` (stereo not drawn), the T/C [13] was 99 % of control and the T/C [14] was 100 % of control.

In the case of `C=C1C(O)C2(O)OCC34C(CC5C(C)=CC(=O)C(O)C5(C)C23)OC(=O)C(O)C14O` (stereo not drawn), the T/C (dose: 6.25 mg/kg/injection, schedule: Q01DX009 (ip), vehicle: saline) was 93 % of control.

For `NC1CN2CCC1CC2` (stereo not drawn), the T/C [4] was 104 % of control, the T/C [5] was 107 % of control and the T/C [15] was 98 % of control.

`CC(C)(C)c1ccc(-c2nnc(C(F)(F)F)nn2)cc1` was tested, and the T/C [6] was 100 % of control, the T/C [7] was 100 % of control and the T/C [8] was 108 % of control.

`O=[N+]([O-])c1ccc(Nc2ccc[n+]3c([O-])csc23)nc1` was tested, and the T/C [4] was 98 % of control, the T/C [7] was 89 % of control and the T/C [5] was 102 % of control. For the same compound, the T/C [8] was 93 % of control.

With `CC1Oc2[nH]c(=O)n(-c3ccc(Cl)cc3)c(=S)c2C1C` (stereo not drawn) the T/C (dose: 12.5 mg/kg/injection, schedule: Q01DX001 (ip), vehicle: Klucel (hydroxypropylcellulose) (HPC)) was 100 % of control, the T/C [16] was 102 % of control and the T/C [17] was 101 % of control.

In the case of `N#CC1=NOC(C(N)C(=O)O)C1` (stereo not drawn), the T/C (dose: 50.0 mg/kg/injection, schedule: Q04DX002 (ip), vehicle: saline) was 103 % of control, the T/C (dose: 100.0 mg/kg/injection, schedule: Q04DX002 (ip), vehicle: saline) was 100 % of control and the T/C (dose: 200.0 mg/kg/injection, schedule: Q04DX002 (ip), vehicle: saline) was 98 % of control.

For `CCN(C(=O)CCl)c1ccccc1C`, the T/C (dose: 50.0 mg/kg/injection, schedule: Q04DX003 (ip), vehicle: saline with Tween-80) was 100 % of control and the T/C [12] was 100 % of control.

In the case of `CN1CCC(/C=C/c2cccc3ccccc23)CN1` (stereo not drawn) (tested in a mixture with another compound), the T/C [4] was 108 % of control and the T/C [5] was 99 % of control.

For `C[n+]1c2ccccc2nc2c(N)cc(N)cc21`, the T/C (dose: 31.3 mg/kg/injection, schedule: Q04DX003 (ip), vehicle: saline sonified) was 104 % of control, the T/C (dose: 83.0 mg/kg/injection, schedule: Q04DX003 (ip), vehicle: saline with Tween-80) was 113 % of control and the T/C (dose: 125.0 mg/kg/injection, schedule: Q04DX003 (ip), vehicle: saline with Tween-80) was 122 % of control. The T/C (dose: 188.0 mg/kg/injection, schedule: Q04DX003 (ip), vehicle: saline with Tween-80) was 100 % of control.

In the case of `O=C1CCCCCCCC(=O)Nc2ccc3nc4ccccc4c(c3c2)SCCCCCCCCCCCCSc2c3ccccc3nc3ccc(cc23)N1`, the T/C [13] was 105 % of control, the T/C [14] was 107 % of control and the T/C (dose: 200.0 mg/kg/injection, schedule: Q01DX005 (ip), vehicle: saline with Tween-80) was 104 % of control.

`CC(O)CC1(c2ccccc2)CNC(=O)NC1=O` (stereo not drawn) was tested, and the T/C [16] was 94 % of control, the T/C [17] was 94 % of control and the T/C (dose: 100.0 mg/kg/injection, schedule: Q01DX001 (ip), vehicle: Klucel (hydroxypropylcellulose) (HPC)) was 99 % of control and 106 % of control. The T/C (dose: 400.0 mg/kg/injection, schedule: Q01DX001 (ip), vehicle: Klucel (hydroxypropylcellulose) (HPC)) was 92 % of control.

With `CNC(=O)N(C)CP(=O)(CN(C)C(=O)NC)CN(C)C(=O)NC` the T/C [4] was 97 % of control, the T/C [5] was 100 % of control and the T/C [15] was 99 % of control.

For `Cc1nn(C(=O)c2ccncc2)c(C)c1N=Nc1ccc(-c2ccc(N)cc2)cc1`, the T/C [9] was 99 % of control, the T/C [10] was 90 % of control and the T/C [11] was 90 % of control.

`COc1ccc2c(c1)C(Cc1ccc(Oc3ccc(CC4c5cc(OC)ccc5CC[N+]4(C)C)cc3)cc1)[N+](C)(C)CC2` (stereo not drawn) was tested, and the T/C (dose: 1.56 mg/kg/injection, schedule: Q04DX003 (ip), vehicle: water) was 107 % of control.

With `CNC(=O)c1ccccc1NC(=O)c1ccccc1[N+](=O)[O-]` the T/C (dose: 100.0 mg/kg/injection, schedule: Q04DX002 (ip), vehicle: Klucel (hydroxypropylcellulose) (HPC)) was 102 % of control, the T/C (dose: 200.0 mg/kg/injection, schedule: Q04DX002 (ip), vehicle: Klucel (hydroxypropylcellulose) (HPC)) was 107 % of control and the T/C (dose: 400.0 mg/kg/injection, schedule: Q04DX002 (ip), vehicle: Klucel (hydroxypropylcellulose) (HPC)) was 103 % of control.

For `C/C=C(\C)C(=O)OC1CC(C)(C)C2C3C(=O)C=C(C)C2C3(C)C1OC(=O)/C(C)=C/C` (stereo not drawn), the T/C (dose: 75.0 mg/kg/injection, schedule: Q01DX001 (ip), vehicle: Klucel (hydroxypropylcellulose) (HPC)) was 97 % of control, the T/C (dose: 150.0 mg/kg/injection, schedule: Q01DX001 (ip), vehicle: Klucel (hydroxypropylcellulose) (HPC)) was 98 % of control and the T/C (dose: 300.0 mg/kg/injection, schedule: Q01DX001 (ip), vehicle: Klucel (hydroxypropylcellulose) (HPC)) was 101 % of control.

For `CCCCC[CH2][GeH]([CH2]CCCCC)[O][GeH]([CH2]CCCCC)[CH2]CCCCC`, the T/C [18] was 100 % of control and 97 % of control, the T/C [3] was 104 % of control and 90 % of control and the T/C [4] was 100 % of control and 101 % of control and 106 % of control. For the same compound, the T/C [5] was 120 % of control and 97 % of control.

`C[As](C)SCC(NC(=O)CCC(N)C(=O)O)C(=O)NCC(=O)O` (stereo not drawn) was tested, and the T/C [18] was 104 % of control, the T/C [3] was 109 % of control and the T/C [15] was 97 % of control.
